Laboratory results as given in patent US20260284208A1, “SYSTEM” (Oxford University Innovation Limited, priority 2023, published 2026).

System: library of 8,380 IKZF3 degrons (ZF-eGFP/mCherry reporter) in Jurkat cells
Test: Pooled library screen (FACS, NGS, limma voom LogFC of positive vs negative read counts)
Assay type: cell-based, human
In short: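 Degron enrichment was scored by amplicon NGS of gDNA from GFP-low versus other mCherry+ cells, at >600× coverage across three independent transductions. Sorting followed 18 h exposure at 37 °C to thalidomide analog or DMSO, which set the gate; dead cells were excluded with DAPI. Single-copy integration used MOI <0.3.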

`CN1CCN(c2ccc3c(c2)C(=O)N(C2CCC(=O)NC2=O)C3=O)CC1` (centres unmarked) [B08, 2-(2,6-dioxopiperidin-3-yl)-5-(4-methylpiperazin-1-yl)isoindoline-1,3-dione] gave a B08_logFC (Degron-ID 115, SEQ ID NO 2354, 46F_47A_49E_50V_52G_53A_54S_55F_67L) of 2.665, a B08_logFC (Degron-ID 312, SEQ ID NO 2356, 46F_47C_49E_50I_52G_53A_54P_55F_67L) of 2.662 and a B08_logFC (Degron-ID 313, SEQ ID NO 2359, 46F_47C_49E_50I_52G_53A_54Q_55F_67L) of 2.659. It also gave a B08_logFC (Degron-ID 316, SEQ ID NO 2364, 46F_47C_49E_50I_52G_53A_54T_55F_67L) of 2.641, a B08_logFC (Degron-ID 355, SEQ ID NO 2334, 46F_47C_49E_50V_52G_53A_54S_55F_67L) of 2.718 and a B08_logFC (Degron-ID 432, SEQ ID NO 2346, 46F_47C_49P_50I_52G_53A_54P_55F_67L) of 2.683. The B08_logFC (Degron-ID 480, SEQ ID NO 2273, 46F_47D_49D_50I_52G_53A_54A_55F_67L) was 2.887, the B08_logFC (Degron-ID 495, SEQ ID NO 2327, 46F_47D_49D_50I_52G_53A_54S_55F_67L) was 2.748 and the B08_logFC (Degron-ID 556, SEQ ID NO 2290, 46F_47D_49E_50I_52G_53A_54T_55F_67L) was 2.821. It also gave a B08_logFC (Degron-ID 557, SEQ ID NO 2336, 46F_47D_49E_50I_52G_53A_54V_55F_67L) of 2.714, a B08_logFC (Degron-ID 591, SEQ ID NO 2348, 46F_47D_49E_50V_52G_53A_54N_55F_67L) of 2.678 and a B08_logFC (Degron-ID 593, SEQ ID NO 2355, 46F_47D_49E_50V_52G_53A_54Q_55F_67L) of 2.664. For the same compound, the B08_logFC (Degron-ID 600, SEQ ID NO 2284, 46F_47D_49N_50I_52G_53A_54A_55F_67L) was 2.845, the B08_logFC (Degron-ID 825, SEQ ID NO 2282, 46F_47E_49E_50V_52G_53A_54G_55F_67L) was 2.853 and the B08_logFC (Degron-ID 852, SEQ ID NO 2326, 46F_47E_49N_50I_52G_53A_54P_55F_67L) was 2.749. It also gave a B08_logFC (Degron-ID 966, SEQ ID NO 2283, 46F_47F_49D_50I_52G_53A_54H_55F_67L) of 2.85, a B08_logFC (Degron-ID 1014, SEQ ID NO 2319, 46F_47F_49D_50V_52G_53A_54R_55F_67L) of 2.759 and a B08_logFC (Degron-ID 1079, SEQ ID NO 2329, 46F_47F_49E_50V_52G_53A_54Y_55F_67L) of 2.743. The B08_logFC (Degron-ID 1091, SEQ ID NO 2265, 46F_47F_49N_50I_52G_53A_54N_55F_67L) was 2.903, the B08_logFC (Degron-ID 1095, SEQ ID NO 2275, 46F_47F_49N_50I_52G_53A_54S_55F_67L) was 2.882 and the B08_logFC (Degron-ID 1096, SEQ ID NO 2340, 46F_47F_49N_50I_52G_53A_54T_55F_67L) was 2.704. It also gave a B08_logFC (Degron-ID 1146, SEQ ID NO 2305, 46F_47F_49P_50I_52G_53A_54H_55F_67L) of 2.792, a B08_logFC (Degron-ID 1147, SEQ ID NO 2343, 46F_47F_49P_50I_52G_53A_54I_55F_67L) of 2.701 and a B08_logFC (Degron-ID 1149, SEQ ID NO 2361, 46F_47F_49P_50I_52G_53A_54L_55F_67L) of 2.65. The B08_logFC (Degron-ID 1154, SEQ ID NO 2333, 46F_47F_49P_50I_52G_53A_54R_55F_67L) was 2.724, the B08_logFC (Degron-ID 1159, SEQ ID NO 2293, 46F_47F_49P_50I_52G_53A_54Y_55F_67L) was 2.817 and the B08_logFC (Degron-ID 1186, SEQ ID NO 2321, 46F_47F_49P_50V_52G_53A_54H_55F_67L) was 2.754. It also gave a B08_logFC (Degron-ID 1192, SEQ ID NO 2303, 46F_47F_49P_50V_52G_53A_54P_55F_67L) of 2.797, a B08_logFC (Degron-ID 1440, SEQ ID NO 2337, 46F_47H_49D_50I_52G_53A_54A_55F_67L) of 2.712 and a B08_logFC (Degron-ID 1541, SEQ ID NO 2267, 46F_47H_49E_50V_52G_53A_54C_55F_67L) of 2.901. For the same compound, the B08_logFC (Degron-ID 1552, SEQ ID NO 2268, 46F_47H_49E_50V_52G_53A_54P_55F_67L) was 2.901, the B08_logFC (Degron-ID 1572, SEQ ID NO 2307, 46F_47H_49N_50I_52G_53A_54P_55F_67L) was 2.781 and the B08_logFC (Degron-ID 1575, SEQ ID NO 2324, 46F_47H_49N_50I_52G_53A_54S_55F_67L) was 2.75. For the same compound, the B08_logFC (Degron-ID 1635, SEQ ID NO 2315, 46F_47H_49P_50I_52G_53A_54S_55F_67L) was 2.766, the B08_logFC (Degron-ID 1660, SEQ ID NO 2328, 46F_47H_49P_50V_52G_53A_54A_55F_67L) was 2.746 and the B08_logFC (Degron-ID 1673, SEQ ID NO 2281, 46F_47H_49P_50V_52G_53A_54Q_55F_67L) was 2.855. For the same compound, the B08_logFC (Degron-ID 1812, SEQ ID NO 2277, 46F_47I_49N_50I_52G_53A_54P_55F_67L) was 2.872, the B08_logFC (Degron-ID 2412, SEQ ID NO 2342, 46F_47M_49D_50I_52G_53A_54P_55F_67L) was 2.702 and the B08_logFC (Degron-ID 2832, SEQ ID NO 2294, 46F_47N_49P_50I_52G_53A_54P_55F_67L) was 2.815. It also gave a B08_logFC (Degron-ID 2940, SEQ ID NO 2314, 46F_47Q_49E_50I_52G_53A_54A_55F_67L) of 2.768, a B08_logFC (Degron-ID 2955, SEQ ID NO 2358, 46F_47Q_49E_50I_52G_53A_54S_55F_67L) of 2.66 and a B08_logFC (Degron-ID 2957, SEQ ID NO 2350, 46F_47Q_49E_50I_52G_53A_54V_55F_67L) of 2.675. It also gave a B08_logFC (Degron-ID 2987, SEQ ID NO 2341, 46F_47Q_49E_50V_52G_53A_54I_55F_67L) of 2.703, a B08_logFC (Degron-ID 3012, SEQ ID NO 2271, 46F_47Q_49N_50I_52G_53A_54P_55F_67L) of 2.893 and a B08_logFC (Degron-ID 3100, SEQ ID NO 2338, 46F_47Q_49P_50V_52G_53A_54A_55F_67L) of 2.707. It also gave a B08_logFC (Degron-ID 3172, SEQ ID NO 2291, 46F_47R_49D_50V_52G_53A_54P_55F_67L) of 2.82, a B08_logFC (Degron-ID 3252, SEQ ID NO 2349, 46F_47R_49N_50I_52G_53A_54P_55F_67L) of 2.676 and a B08_logFC (Degron-ID 3360, SEQ ID NO 2289, 46F_47S_49D_50I_52G_53A_54A_55F_67L) of 2.823. The B08_logFC (Degron-ID 3421, SEQ ID NO 2287, 46F_47S_49E_50I_52G_53A_54C_55F_67L) was 2.828 and the B08_logFC (Degron-ID 3433, SEQ ID NO 2323, 46F_47S_49E_50I_52G_53A_54Q_55F_67L) was 2.75.
